The results in this text go back to ChEMBL document CHEMBL1146116, “N-thiolated 2-oxazolidinones: a new family of antibacterial agents for methicillin-resistant Staphylococcus aureus and Bacillus anthracis” (2006).

Holding throughout (assay type): functional
Assay [1] deals with Staphylococcus aureus. Kind of assay: Antibacterial activity against methicillin-resistant Staphylococcus aureus USF656 by agar disk diffusion method. On the technique in general: In agar diffusion tests the substance spreads into inoculated agar from a disc or well.
Assay [2] relates to Staphylococcus aureus. In words: Antibacterial activity against methicillin-resistant Staphylococcus aureus USF657 by agar disk diffusion method.
For assay [3], the system named is Staphylococcus aureus. Kind of assay: Antibacterial activity against methicillin-resistant Staphylococcus aureus USF654 by agar disk diffusion method.
Assay [4] has as its system Staphylococcus aureus. Kind of assay: Antibacterial activity against methicillin-resistant Staphylococcus aureus USF652 by agar disk diffusion method.
Assay [5] has as its system Staphylococcus aureus. In words: Antibacterial activity against Staphylococcus aureus 849 ATCC 25923 by agar disk diffusion method.
For assay [6], the system named is Staphylococcus aureus. In words: Antibacterial activity against methicillin-resistant Staphylococcus aureus USF653 by agar disk diffusion method.
Assay [7] has as its system Staphylococcus aureus. Kind of assay: Antibacterial activity against methicillin-resistant Staphylococcus aureus USF658 by agar disk diffusion method.
Assay [8] has as its system Staphylococcus aureus. In words: Antibacterial activity against methicillin-resistant Staphylococcus aureus USF919 ATCC 43300 by agar disk diffusion method.
In assay [9] the test system is Staphylococcus aureus. Kind of assay: Antibacterial activity against methicillin-resistant Staphylococcus aureus USF655 by agar disk diffusion method.
Assay [10] deals with Staphylococcus aureus. Kind of assay: Antibacterial activity against methicillin-resistant Staphylococcus aureus USF920 ATCC 33591 by agar disk diffusion method.
In assay [11] the test system is Staphylococcus aureus. In words: Antibacterial activity against methicillin-resistant Staphylococcus aureus USF659 by agar disk diffusion method.
Assay [12] relates to Bacillus subtilis. Kind of assay: Antibacterial activity against Bacillus subtilis by agar disk diffusion method.
Assay [13] concerns Bacillus cereus. In words: Antibacterial activity against Bacillus cereus by agar disk diffusion method.
In assay [14] the test system is Bacillus subtilis. In words: Antibacterial activity against Bacillus globigii by agar disk diffusion method.
The test system of assay [15] is Priestia megaterium. In words: Antibacterial activity against Bacillus megaterium by agar disk diffusion method.
Assay [16] has as its system Bacillus thuringiensis. Kind of assay: Antibacterial activity against Bacillus thuringiensis by agar disk diffusion method.
Assay [17] relates to Heyndrickxia coagulans. In words: Antibacterial activity against Bacillus coagulans by agar disk diffusion method.
Assay [18] relates to Staphylococcus aureus. Kind of assay: Antibacterial activity against Staphylococcus aureus.
Assay [19] deals with Staphylococcus aureus. Kind of assay: Antibacterial activity against methicillin-resistant Staphylococcus aureus.

Structures are written as SMILES. ≈ marks a conversion by molar mass, not a printed value.

In the case of `CCC(C)SN1CC(CCl)OC1=O` (stereo not given), the inhibition zone (IZ) in assay [1] was 20 mm; in assay [2], 22 mm; in [3], 22 mm; in [4], 19 mm; in [5], 19 mm; in [6], 20 mm. In addition, the inhibition zone (IZ) in [7] came out at 21 mm; in [8] it was 19 mm; in assay [9], 22 mm; in [10], 19 mm; in assay [11], 20 mm.

On to `CC1(C)S[C@@H]2[C@H](NC(=O)Cc3ccccc3)C(=O)N2[C@H]1C(=O)O` [PENICILLIN G], for which the inhibition zone (IZ) was found to be 12 mm in assay [1]; 12 mm in assay [2]; 10 mm in [3]; 8 mm in assay [4]; 33 mm in assay [5]; 15 mm in assay [6]. Further, the inhibition zone (IZ) in assay [7] worked out at 19 mm; in assay [9], 14 mm; in assay [11] it was 16 mm.

Turning to `COC(=O)[C@@H]1OC(=O)N(SC)[C@H]1c1ccccc1`, the inhibition zone (IZ) in assay [1] was found to be 15 mm; in [2], 12 mm; in assay [3] it was 14 mm; in assay [4], 12 mm; in [5] it was 16 mm; in [6], 19 mm. In addition, the inhibition zone (IZ) in assay [7] stood at 14 mm; in assay [8] it was 11 mm; in assay [9] it was 14 mm; in [10] it was 0 mm; in assay [11], 16 mm.

As for `CSN1C(=O)OC[C@H]1C(C)C`, the inhibition zone (IZ) in [1] was determined as 20 mm; in [2], 19 mm; in [12] it was 19 mm; in assay [3], 20 mm; in assay [4], 12 mm; in assay [5], 21 mm. The inhibition zone (IZ) in assay [6] is 25 mm; in assay [7], 19 mm; in [13] it was 15 mm; in assay [8], 13 mm; in assay [14], 17 mm; in assay [15] it was 10 mm. Moreover, the inhibition zone (IZ) was 18 mm in assay [9]; 15 mm in assay [10]; 22 mm in assay [11]; 0 mm in assay [16]; 0 mm in assay [17].

Take `CSN1C(=O)O[C@@H](CN=[N+]=[N-])[C@@H]1c1ccccc1`: the inhibition zone (IZ) was found to be 31 mm in [1]; 30 mm in assay [2]; 30 mm in [3]; 30 mm in assay [4]; 31 mm in assay [5]; 32 mm in [6]. Besides, the inhibition zone (IZ) in assay [7] was found to be 31 mm; in assay [8], 32 mm; in [9] it was 30 mm; in assay [10] it was 32 mm; in [11] it was 28 mm.

With `CSN1C(=O)OCC1Cc1ccccc1` (stereo not given), the inhibition zone (IZ) was 19 mm in [1]; 19 mm in [2]; 18 mm in assay [3]; 17 mm in [4]; 17 mm in assay [5]; 20 mm in assay [6]. For the same compound, the inhibition zone (IZ) worked out at 17 mm in assay [7]; 19 mm in assay [8]; 17 mm in assay [9]; 19 mm in [10]; 19 mm in [11].

As usually defined, the MIC is the lowest concentration found to suppress growth. For the compound `CSN1C(=O)OC[C@H]1c1ccccc1`, the inhibition zone (IZ) in assay [1] came out at 28 mm; in [2], 27 mm; in [12] it was 19 mm; in assay [3], 26 mm; in [4] it was 30 mm; in [5], 29 mm. Also, the inhibition zone (IZ) worked out at 30 mm in [6]; 27 mm in [7]; 23 mm in [13]; 28 mm in assay [8]; 17 mm in assay [14]; 20 mm in [15]. The inhibition zone (IZ) in [9] was 28 mm; in assay [10] it was 28 mm; in assay [11] it was 26 mm; in [16] it was 15 mm; in [17], 17 mm. Also, the MIC in assay [18] and in assay [19] was 8 µg/mL (≈ 38.2 µM) throughout.

For `CSN1CC(CCl)OC1=O` (stereo not given), the inhibition zone (IZ) was 22 mm in assay [1]; 21 mm in [2]; 20 mm in [3]; 16 mm in [4]; 21 mm in assay [5]; 20 mm in assay [6]. Further, the inhibition zone (IZ) turned out to be 18 mm in assay [7]; 20 mm in assay [8]; 20 mm in assay [9]; 16 mm in assay [10]; 19 mm in assay [11].

Turning to `CO[C@H]1C(=O)N(SC)[C@H]1c1ccccc1`, the inhibition zone (IZ) in assay [1] was 28 mm; in assay [2], 27 mm; in assay [3] it was 26 mm; in assay [4], 30 mm; in [5], 25 mm; in assay [6] it was 30 mm. Also, the inhibition zone (IZ) in [7] is 26 mm; in [9], 25 mm; in [11] it was 24 mm.

For the compound `CSN1C(=O)OC[C@@H]1C(C)C`, the inhibition zone (IZ) turned out to be 22 mm in assay [1]; 22 mm in assay [2]; 17 mm in assay [12]; 23 mm in assay [3]; 19 mm in [4]; 20 mm in assay [5]. The inhibition zone (IZ) came out at 27 mm in assay [6]; 16 mm in assay [7]; 22 mm in assay [13]; 21 mm in assay [8]; 15 mm in [14]; 18 mm in assay [15]. For the same compound, the inhibition zone (IZ) in assay [9] was found to be 22 mm; in [10] it was 18 mm; in assay [11], 22 mm; in assay [16] it was 16 mm; in assay [17], 17 mm. Besides, the MIC in assay [18] and in assay [19] was 16 µg/mL (≈ 91.3 µM) in each case.

As to `CSN1C(=O)OC[C@@H]1c1ccccc1`, the inhibition zone (IZ) is 31 mm in assay [1]; 29 mm in [2]; 19 mm in assay [12]; 29 mm in assay [3]; 30 mm in [4]; 30 mm in assay [5]. Also, the inhibition zone (IZ) was 31 mm in assay [6]; 29 mm in [7]; 24 mm in [13]; 30 mm in assay [8]; 15 mm in assay [14]; 18 mm in assay [15]. The inhibition zone (IZ) in assay [9] came out at 29 mm; in assay [10] it was 28 mm; in assay [11], 26 mm; in assay [16], 17 mm; in [17], 17 mm.
